From US12410178B2, “Small cationic ortho-5,15-di-heteroaryl-porphyrin derivatives and their applications in photoinactivation of microorganisms” (UNIVERSIDADE DE COIMBRA, priority 2019, dated 2025)

Key:
Solubility in water = assay type: physicochemical
[1] = system: Staphylococcus aureus ATCC 25925 biofilms; test: PDI phototoxicity towards biofilms (CFU); assay type: cell-based
Protocol: Phototoxicity towards biofilms was evaluated after biofilm growth overnight. Assays were performed with biofilms from Staphylococcus aureus ATCC 25925. Initially, bacteria cultures were diluted 1:9 in Brain Heart Infusion (BHI) (Kasvi®, Brazil). The microorganisms were centrifuged (1500 rpm, 10 min) and washed twice with phosphate-buffered saline (PBS). Aliquots of the diluted bacterial suspensions were inoculated into 24-well flat-bottom sterile polystyrene microplates and incubated for 24 h at 37° C. For PDI experiments, the plates with biofilms were incubated with 5.2 nM of the photosensitizer for 30 min in the dark at room temperature. Wells used as controls were incubated with PBS only. After that, the plates were illuminated with a specially designed light source named Biotable®. The Biotable® was composed by 24 LED lamps that deliver a uniform light fluence rate of 30 mW/cm^2 in the wavelength range between 400-650 rm. […] After this time, the colonies were counted and the colony-forming units (CFU) determined.
For the phototoxicity study, Staphylococcus aureus ATCC 25925 biofilms grown on 24-well flat-bottom sterile polystyrene microplates were incubated with 5.2 nM of the cationic ortho-5,15-di-heteroaryl porphyrin with Formula (IIa) for 30 min in the dark at room temperature. […] After this time, the colonies were counted and CFU determined. […]

[2] = system: Staphylococcus aureus methicillin-resistant (MRSA) strain Sa1CHUC; test: PDI phototoxicity towards multidrug-resistant planktonic bacteria (CFU); assay type: cell-based; details: 60 min incubation, 1.36 J/cm^2 at 415 nm
Protocol: Phototoxicity towards bacteria was evaluated in vitro. Assays were performed with the following bacteria: Escherichia coli ATCC 25922, Pseudomonas aeruginosa ATCC 27853 and Staphylococcus aureus ATCC 29213. Further assay were performed with clinical antibiotic-resistant strains from the Centro Hospitalar da Universidade de Coimbra, namely Staphylococcus aureus methicillin-resistant (MRSA) strain Sa1CHUC recovered from the skin of a burnt patient (resistant to all beta-lactamic antibiotics), and Acinetobacter baumannii 141HUC isolated from an exudate of a burn wound and highly resistant to all beta-lactamics (penicillins, cephalosporins, monobactams and carbapenems), quinolones and the aminoglycosides gentamicin and netilmicin. The planktonic bacteria cells were cultured in Mueller Hinton (MH) agar (Sigma Aldrich) at 37° C. overnight. Cell density was adjusted to the 0.5 McFarland standard in sterile water, which corresponds to approximately 1.5×10^8 CFU/mL. For PDI experiments cell suspensions of bacteria were incubated with various concentrations of the photosensitizers for 1 h, in the dark, at room temperature, using a 96 well plate. Then, the plate was illuminated with a blue light LED (420 nm, 4 mJ/s). Cells incubated with photosensitizers in the dark were covered with aluminum foil for the same time as the PDI groups (1 h). After illumination (or dark incubation) samples were shaken, diluted in PBS and mixed. Aliquots were taken from each well and streaked in MH agar in duplicate for CFU determination and incubated for 37° C./18-24 h in the dark. After 24 h, the colonies were counted and CFU determined. The experiments were performed in triplicate. Statistical analysis was performed with GraphPad Prism 6.
This example describes the evaluation of in vitro phototoxicity against multidrug-resistant Gram-positive and Gram-negative bacteria of the cationic ortho-5,15-di-heteroaryl porphyrin with Formula (IIa). Assays were performed with clinical resistant strains from the Centro Hospitalar da Universidade de Coimbra, namely Staphylococcus aureus methicillin-resistant (MRSA) strain Sa1CHUC collected from the skin of a burnt patient (resistant to all beta-lactamic antibiotics), and Acinetobacter baumannii 141HUC highly resistant all beta-lactamics, including carbapenems, quinolones, gentamicin and netilmicin, isolated from an exudate of a burn wound. The phototoxicity was measured according to the description in the Materials and Methods section. […] There is a dose-phototoxicity response of the test compound relative to the non-treated control. FIG. 9 illustrates the CFU reduction as a function of photosensitizer concentration for the light dose of 1.36 J/cm^2 at 415 nm.

Structure (SMILES): Cn1cc[n+](C)c1C1=C2C=CC3=[N+]2[Zn@]24[n]5c(ccc51)C=C1C=CC(=[N+]12)C(c1n(C)cc[n+]1C)=c1ccc([n]14)=C3 [Formula (IIa), 5,15-bis(1,3-dimethylimidazol-2-yl)porphyrinate zinc (II) diiodide]
- solubility in water (Solubility in water): soluble in water
- log CFU at 5.2 nM, S. Aureus biofilm ([1]; 5.2 nM, biofilm, 5 J/cm^2, 400-650 nm, 30 min incubation): 7
- reduction of bacteria in the biofilm ([1]; ca. 5 nM, 5 J/cm^2 of white light): 7 orders of magnitude
- reduction of the number of bacterial CFU (in words) ([2]; 1 μM): dramatic decrease in CFU
- log CFU at 1 μM, S. Aureus MRSA ([2]; planktonic): 7
